Laboratory results: patent US20240239798A1, “SALTS AND POLYMORPHS OF M[…] 3-DEUTEROMITRAGYNINE” (priority 2021, published 2024)
Values after ≈ are worked out from the molar mass of the structure shown. Counter-ions that a name gives are not always drawn. Like-named read-outs stand apart in the source and are kept apart here.

What was measured:
[1] = Batch 810081-28-B
[2] = cited from earlier work
[3] = Solubility of 3-DM free base and 3-DM Glycolate Type A in IPA and IPA/H2O (19:1, v/v) at 5, 20, 40, 60° C., 24 hrs; type: physicochemical
[4] = Approximate solubility of amorphous 3-DM free base starting material in 27 solvent systems at RT; type: physicochemical
Experimental: The approximate solubility of the free base starting material was determined in 27 solvent systems at RT. Approximate 2 mg of material was added into a 3-mL glass vial. […] The solubility results summarized in Table 10 were used to guide the solvent selection in salt screening design.

[5] = type: physicochemical; settings: for solubility: organic solvent or mixture, read-out: Approximate solubility
Experimental: In the first batch (100 mg scale), pure IPA was used as solvent. […] Detailed preparation procedures for the 3 scaled-up batches can be found below.

[6] = Background statements on solubility and gel formation in aqueous solution; type: physicochemical

**Q.** With `O=C(O)CO.[2H]C12CC(C(=COC)C(=O)OC)C(CC)CN1CCc1c2[nH]c2cccc(OC)c12` (centres unmarked) as the molecule, how does the D10 ([1]; sonication time 0 s) read?
**A.** 7.51 μm

**Q.** What about the D50 ([1]; sonication time 0 s) of the same molecule?
**A.** 19.96 μm

**Q.** What about the D90 ([1]; sonication time 0 s) of the same molecule?
**A.** 58.66 μm

**Q.** What about the MV ([1]; sonication time 0 s) of the same molecule?
**A.** 28.68 μm

**Q.** What about the D10 ([1]; sonication time 30 s (30 Watt)) of the same molecule?
**A.** 5.92 μm

**Q.** And the D50 ([1]; sonication time 30 s (30 Watt))?
**A.** 15.93 μm

**Q.** What about the D90 ([1]; sonication time 30 s (30 Watt)) of the same molecule?
**A.** 47.05 μm

**Q.** And the MV ([1]; sonication time 30 s (30 Watt))?
**A.** 22.77 μm

**Q.** With `CC[C@@H]1CN2CCc3c([nH]c4cccc(OC)c34)[C@H]2C[C@@H]1/C(=C\OC)C(=O)OC` (stereo in doubt) [mitragynine hydrochloride] as the molecule, how does the “Behaviour in aqueous solution” value ([2]; aqueous solution) read?
**A.** form a gel

**Q.** For `[2H]C12CC(C(=COC)C(=O)OC)C(CC)CN1CCc1c2[nH]c2cccc(OC)c12` (centres unmarked) [3-DM Free Base Type A], which “Solubility in IPA/H2O (19:1, v/v) compared with IPA” value [3] is on record?
**A.** higher than IPA

**Q.** And the equilibrium solubility ([3]; IPA/H2O (19:1, v/v) at 60° C.)?
**A.** 73.94 mg/mL

**Q.** With `O=C(O)CO.[2H][C@@]12C[C@H](/C(=C\OC)C(=O)OC)[C@H](CC)CN1CCc1c2[nH]c2cccc(OC)c12` [3-DM Glycolate] as the molecule, how does the “Results (forms obtained)” value (Grind, 4 experiments) read?
**A.** Glycolate Type A

**Q.** What about the “Results (forms obtained)” value (Liquid-vapor diffusion, 12 experiments) of the same molecule?
**A.** Glycolate Type A, B, D, A + C

**Q.** What about the “Results (forms obtained)” value (Slow cooling, 6 experiments) of the same molecule?
**A.** Glycolate Type A, B, C

**Q.** And the “Results (forms obtained)” value (Slow evaporation, 7 experiments)?
**A.** Glycolate Type A, C, E

**Q.** And the “Results (forms obtained)” value (Slurry at 50° C., 16 experiments)?
**A.** Glycolate Type A, C

**Q.** What about the “Results (forms obtained)” value (Slurry at RT, 25 experiments) of the same molecule?
**A.** Glycolate Type A

**Q.** What about the “Results (forms obtained)” value (Solid vapor diffusion, 12 experiments) of the same molecule?
**A.** Glycolate Type A, C

**Q.** What does the source list for `[2H][C@@]12C[C@H](/C(=C\OC)C(=O)OC)[C@H](CC)CN1CCc1c2[nH]c2cccc(OC)c12` [3-DM free base, 3-deuteromitragynine]?
**A.** solubility ([4]; organic solvent or mixture, thermodynamic from solid, 1,4-dioxane, RT): > 42 mg/mL; solubility ([4]; organic solvent or mixture, thermodynamic from solid, 2-MeTHF, RT): > 48 mg/mL; solubility ([4]; organic solvent or mixture, thermodynamic from solid, ACN, RT): > 46 mg/mL; solubility ([4]; organic solvent or mixture, thermodynamic from solid, Acetone, RT): > 38 mg/mL; solubility ([4]; organic solvent or mixture, thermodynamic from solid, Acetone/n-Heptane (1:1), RT): > 38 mg/mL; solubility ([4]; organic solvent or mixture, thermodynamic from solid, Acetone/n-Heptane (1:4), RT): > 46 mg/mL; solubility ([4]; organic solvent or mixture, thermodynamic from solid, Acetone/n-Heptane (1:9), RT): 7.7 to 23 mg/mL (≈ 19.3 to 57.6 mM); solubility ([4]; organic solvent or mixture, thermodynamic from solid, Acetone/n-Heptane (1:15), RT): 4 to 6.7 mg/mL (≈ 10 to 16.8 mM); solubility ([4]; organic solvent or mixture, thermodynamic from solid, Acetone/n-Heptane (4:1), RT): > 42 mg/mL; solubility ([4]; organic solvent or mixture, thermodynamic from solid, CHCl3, RT): > 46 mg/mL; solubility ([4]; organic solvent or mixture, thermodynamic from solid, DCM, RT): > 42 mg/mL; solubility ([4]; organic solvent or mixture, thermodynamic from solid, DMAc, RT): > 46 mg/mL; solubility ([4]; organic solvent or mixture, thermodynamic from solid, DMSO, RT): > 34 mg/mL; solubility ([4]; organic solvent or mixture, thermodynamic from solid, EtOAc, RT): > 40 mg/mL; solubility ([4]; organic solvent or mixture, thermodynamic from solid, EtOH, RT): > 38 mg/mL; solubility ([4]; organic solvent or mixture, thermodynamic from solid, IPA, RT): > 36 mg/mL; solubility ([4]; organic solvent or mixture, thermodynamic from solid, IPA/H2O (4:1), RT): 7 to 21 mg/mL (≈ 17.5 to 52.6 mM); solubility ([4]; organic solvent or mixture, thermodynamic from solid, IPA/H2O (9:1), RT): 23 to 46 mg/mL (≈ 57.6 to 115 mM); solubility ([4]; organic solvent or mixture, thermodynamic from solid, IPAc, RT): > 42 mg/mL; solubility ([4]; organic solvent or mixture, thermodynamic from solid, MIBK, RT): > 40 mg/mL; solubility ([4]; organic solvent or mixture, thermodynamic from solid, MTBE, RT): > 46 mg/mL; solubility ([4]; organic solvent or mixture, thermodynamic from solid, MeOH, RT): > 46 mg/mL; solubility ([4]; organic solvent or mixture, thermodynamic from solid, NMP, RT): > 44 mg/mL; solubility ([4]; organic solvent or mixture, thermodynamic from solid, THF, RT): > 40 mg/mL; solubility ([4]; organic solvent or mixture, thermodynamic from solid, Toluene, RT): > 36 mg/mL; solubility ([4]; organic solvent or mixture, thermodynamic from solid, n-Heptane, RT): < 2.3 mg/mL; solubility ([4]; water, thermodynamic from solid, H2O, RT): < 2.3 mg/mL; solubility ([5]; EtOAc): > 40 mg/mL; solubility ([5]; EtOH): > 38 mg/mL; Solubility in IPA (in words) ([5]; IPA, approximate): high solubility; solubility ([5]; IPA): > 36 mg/mL; solubility ([5]; MeOH): > 46 mg/mL; solubility ([5]; acetone): > 38 mg/mL; solubility ([5]; acetone/n-heptane (1:1) v/v): > 42 mg/mL; Solubility compared with Glycolate Type A ([3]; IPA and IPA/H2O (19:1, v/v), each temperature (5-60° C.)): much higher than that of Glycolate Type A

**Q.** With `Cl.[2H]C12CC(C(=COC)C(=O)OC)C(CC)CN1CCc1c2[nH]c2cccc(OC)c12` (centres unmarked) [3-DM hydrochloride salt] as the molecule, how does the “Behaviour in aqueous solution” value [6] read?
**A.** forms a gel

**Q.** With `CC[C@@H]1CN2CCc3c([nH]c4cccc(OC)c34)[C@@H]2C[C@@H]1/C(=C\OC)C(=O)OC` [Mitragynine] as the molecule, how does the “Solubility in conventional organic solvents (in words)” value ([2]; acetone, acetic acid, alcohols, chloroform and diethyl ether) read?
**A.** soluble

**Q.** And the “Solubility in water (in words)” value ([2]; water)?
**A.** insoluble
